{"source": "ChEMBL document CHEMBL2073754", "about": "“Cotransport of reduced glutathione with bile salts by MRP4 (ABCC4) localized to the basolateral hepatocyte membrane” (Hepatology, 2003)", "assay_type_in_all_cases": "functional, cell membranes, Membrane vesicle", "design_in_all_cases": "scale not given: the % may be the effect or the level left", "key": {"MRP4 (ABCC4) [1]": {"target": "T1, MRP4 (ABCC4) (Homo sapiens, UniProt O15439)", "T1 sequence (O15439 whole entry)": "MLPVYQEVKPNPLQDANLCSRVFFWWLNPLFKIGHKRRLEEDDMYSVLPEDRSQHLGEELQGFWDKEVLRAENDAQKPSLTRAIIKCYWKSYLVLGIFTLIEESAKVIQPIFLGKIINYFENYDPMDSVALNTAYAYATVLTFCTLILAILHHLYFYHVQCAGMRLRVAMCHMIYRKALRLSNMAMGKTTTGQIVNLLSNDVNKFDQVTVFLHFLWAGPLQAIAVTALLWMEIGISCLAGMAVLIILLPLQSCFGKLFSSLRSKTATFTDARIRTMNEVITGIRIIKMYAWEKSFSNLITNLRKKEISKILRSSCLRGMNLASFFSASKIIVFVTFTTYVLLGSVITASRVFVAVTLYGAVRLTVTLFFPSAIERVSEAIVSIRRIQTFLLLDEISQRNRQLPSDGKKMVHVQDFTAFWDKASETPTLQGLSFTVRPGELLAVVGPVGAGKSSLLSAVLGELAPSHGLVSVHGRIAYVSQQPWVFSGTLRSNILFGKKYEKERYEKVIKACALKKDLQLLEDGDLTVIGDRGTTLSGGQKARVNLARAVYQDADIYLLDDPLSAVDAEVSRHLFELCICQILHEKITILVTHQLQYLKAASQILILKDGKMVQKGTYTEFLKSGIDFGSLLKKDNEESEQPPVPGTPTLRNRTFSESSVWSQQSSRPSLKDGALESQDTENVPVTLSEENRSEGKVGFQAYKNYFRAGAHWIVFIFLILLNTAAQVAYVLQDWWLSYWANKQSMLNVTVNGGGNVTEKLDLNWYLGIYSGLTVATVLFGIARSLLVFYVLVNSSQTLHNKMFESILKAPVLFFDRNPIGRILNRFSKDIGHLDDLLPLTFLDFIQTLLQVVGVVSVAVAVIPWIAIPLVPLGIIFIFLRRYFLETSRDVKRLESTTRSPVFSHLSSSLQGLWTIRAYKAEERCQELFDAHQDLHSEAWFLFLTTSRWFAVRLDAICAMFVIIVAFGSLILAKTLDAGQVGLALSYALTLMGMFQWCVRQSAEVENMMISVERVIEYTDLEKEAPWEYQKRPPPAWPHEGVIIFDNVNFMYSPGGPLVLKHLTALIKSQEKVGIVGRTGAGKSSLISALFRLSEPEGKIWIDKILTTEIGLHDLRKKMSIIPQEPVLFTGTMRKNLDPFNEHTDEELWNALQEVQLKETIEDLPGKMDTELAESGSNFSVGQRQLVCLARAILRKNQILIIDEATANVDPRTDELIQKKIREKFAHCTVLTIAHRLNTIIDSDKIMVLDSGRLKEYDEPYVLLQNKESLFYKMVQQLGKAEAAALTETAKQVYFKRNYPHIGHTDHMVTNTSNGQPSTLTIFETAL", "test": "TP_TRANSPORTER: inhibition of Taurocholate uptake in the presence of Tauroursodeoxycholate at a concentration of 20uM in membrane vesicles from MRP4-expressing V79 cells", "settings": "hamster, probe taurocholate, read-out: Activity"}, "[2]": {"target": "T2, ATP-binding cassette sub-family C member 4 (Homo sapiens, UniProt O15439)", "T2 sequence (O15439 whole entry)": "T1 sequence (O15439 whole entry)", "test": "TP_TRANSPORTER: inhibition of Taurocholate uptake in the presence of MK-571 at a concentration of 20uM in membrane vesicles from MRP4-expressing V79 cells", "settings": "hamster, v79, 20 µM"}, "MRP4 (ABCC4) [3]": {"target": "T1, MRP4 (ABCC4)", "test": "TP_TRANSPORTER: inhibition of Taurocholate uptake in the presence of Dehydroepiandrosterone-3-sulfate at a concentration of 5uM in membrane vesicles from MRP4-expressing V79 cells", "settings": "hamster, probe taurocholate, read-out: Activity"}, "MRP4 (ABCC4) [4]": {"target": "T1, MRP4 (ABCC4)", "test": "TP_TRANSPORTER: inhibition of Taurocholate uptake in the presence of Lithoglycocholate at a concentration of 20uM in membrane vesicles from MRP4-expressing V79 cells", "settings": "hamster, probe taurocholate, read-out: Activity"}, "MRP4 (ABCC4) [5]": {"target": "T1, MRP4 (ABCC4)", "test": "TP_TRANSPORTER: inhibition of Taurocholate uptake in the presence of Glycocholate at a concentration of 20uM in membrane vesicles from MRP4-expressing V79 cells", "settings": "hamster, probe taurocholate, read-out: Activity"}, "MRP4 (ABCC4) [6]": {"target": "T1, MRP4 (ABCC4)", "test": "TP_TRANSPORTER: inhibition of Taurocholate uptake in the presence of Folate at a concentration of 20uM in membrane vesicles from MRP4-expressing V79 cells", "settings": "hamster, probe taurocholate, read-out: Activity"}, "MRP4 (ABCC4) [7]": {"target": "T1, MRP4 (ABCC4)", "test": "TP_TRANSPORTER: inhibition of Taurocholate uptake by Taurochenodeoxycholate at a concentration of 20uM in membrane vesicles from MRP4-expressing V79 cells", "settings": "hamster, probe taurocholate, read-out: Activity"}, "[8]": {"target": "T2, ATP-binding cassette sub-family C member 4", "test": "TP_TRANSPORTER: inhibition of Taurocholate uptake in the presence of Probenecid at a concentration of 20uM in membrane vesicles from MRP4-expressing V79 cells", "settings": "hamster, v79, 20 µM"}, "[9]": {"target": "T2, ATP-binding cassette sub-family C member 4", "test": "TP_TRANSPORTER: inhibition of Taurocholate uptake in the presence of Lithocholate at a concentration of 20uM in membrane vesicles from MRP4-expressing V79 cells", "settings": "hamster, v79, 20 µM"}, "MRP4 (ABCC4) [10]": {"target": "T1, MRP4 (ABCC4)", "test": "TP_TRANSPORTER: inhibition of Taurocholate uptake in the presence of Methotrexate at a concentration of 20uM in membrane vesicles from MRP4-expressing V79 cells", "settings": "hamster, probe taurocholate, read-out: Activity"}, "MRP4 (ABCC4) [11]": {"target": "T1, MRP4 (ABCC4)", "test": "TP_TRANSPORTER: inhibition of Taurocholate uptake in the presence of Dipyridamole at a concentration of 20uM in membrane vesicles from MRP4-expressing V79 cells", "settings": "hamster, probe taurocholate, read-out: Activity"}, "MRP4 (ABCC4) [12]": {"target": "T1, MRP4 (ABCC4)", "test": "TP_TRANSPORTER: inhibition of Taurocholate uptake in the presence of Ursodeoxycholate at a concentration of 20uM in membrane vesicles from MRP4-expressing V79 cells", "settings": "hamster, probe taurocholate, read-out: Activity"}}}
{"smiles": "C[C@H](CCC(=O)NCCS(=O)(=O)O)[C@H]1CC[C@H]2[C@@H]3[C@@H](O)C[C@@H]4C[C@H](O)CC[C@]4(C)[C@H]3CC[C@]12C", "note": "[TAURURSODIOL]", "values": [{"measurement": "activity at 20 µM", "setting": "MRP4 (ABCC4) [1]", "result": 26, "unit": "%"}]}
{"smiles": "CN(C)C(=O)CCSC(SCCC(=O)O)c1cccc(/C=C/c2ccc3ccc(Cl)cc3n2)c1", "note": "(configuration not stated) [MK-571]", "values": [{"measurement": "Activity", "setting": "[2]", "result": 9, "unit": "%"}]}
{"smiles": "C[C@]12CC[C@H](OS(=O)(=O)O)CC1=CC[C@@H]1[C@@H]2CC[C@]2(C)C(=O)CC[C@@H]12", "note": "[PRASTERONE SULFURIC ACID]", "values": [{"measurement": "activity at 5 µM", "setting": "MRP4 (ABCC4) [3]", "result": 34, "unit": "%"}]}
{"smiles": "C[C@H](CCC(=O)NCC(=O)O)[C@H]1CC[C@H]2[C@@H]3CC[C@@H]4C[C@H](O)CC[C@]4(C)[C@H]3CC[C@]12C", "note": "[LITHOGLYCOCHOLATE]", "values": [{"measurement": "activity at 20 µM", "setting": "MRP4 (ABCC4) [4]", "result": 9, "unit": "%"}]}
{"smiles": "C[C@H](CCC(=O)NCC(=O)O)[C@H]1CC[C@H]2[C@@H]3[C@H](O)C[C@@H]4C[C@H](O)CC[C@]4(C)[C@H]3C[C@H](O)[C@]12C", "note": "[GLYCOCHOLIC ACID]", "values": [{"measurement": "activity at 20 µM", "setting": "MRP4 (ABCC4) [5]", "result": 45, "unit": "%"}]}
{"smiles": "Nc1nc2ncc(CNc3ccc(C(=O)N[C@@H](CCC(=O)O)C(=O)O)cc3)nc2c(=O)[nH]1", "note": "[FOLIC ACID]", "values": [{"measurement": "activity at 20 µM", "setting": "MRP4 (ABCC4) [6]", "result": 63, "unit": "%"}]}
{"smiles": "C[C@H](CCC(=O)NCCS(=O)(=O)O)[C@H]1CC[C@H]2[C@@H]3[C@H](O)C[C@@H]4C[C@H](O)CC[C@]4(C)[C@H]3CC[C@]12C", "note": "[TAUROCHENODEOXYCHOLATE]", "values": [{"measurement": "activity at 20 µM", "setting": "MRP4 (ABCC4) [7]", "result": 11, "unit": "%"}]}
{"smiles": "CCCN(CCC)S(=O)(=O)c1ccc(C(=O)O)cc1", "note": "[PROBENECID]", "values": [{"measurement": "Activity", "setting": "[8]", "result": 52, "unit": "%"}]}
{"smiles": "C[C@H](CCC(=O)O)[C@H]1CC[C@H]2[C@@H]3CC[C@@H]4C[C@H](O)CC[C@]4(C)[C@H]3CC[C@]12C", "note": "[LITHOCHOLIC ACID]", "values": [{"measurement": "Activity", "setting": "[9]", "result": 68, "unit": "%"}]}
{"smiles": "CN(Cc1cnc2nc(N)nc(N)c2n1)c1ccc(C(=O)N[C@@H](CCC(=O)O)C(=O)O)cc1", "note": "[METHOTREXATE]", "values": [{"measurement": "activity at 20 µM", "setting": "MRP4 (ABCC4) [10]", "result": 39, "unit": "%"}]}
{"smiles": "OCCN(CCO)c1nc(N2CCCCC2)c2nc(N(CCO)CCO)nc(N3CCCCC3)c2n1", "note": "[DIPYRIDAMOLE]", "values": [{"measurement": "activity at 20 µM", "setting": "MRP4 (ABCC4) [11]", "result": 32, "unit": "%"}]}
{"smiles": "C[C@H](CCC(=O)O)[C@H]1CC[C@H]2[C@@H]3[C@@H](O)C[C@@H]4C[C@H](O)CC[C@]4(C)[C@H]3CC[C@]12C", "note": "[URSODIOL]", "values": [{"measurement": "activity at 20 µM", "setting": "MRP4 (ABCC4) [12]", "result": 18, "unit": "%"}]}
